Measured values published in US20210015793A1, “COMPOUNDS FOR TREATING CNS- AND NEURODEGENERATIVE DISEASES” (ETH ZURICH, priority 2018, published 2021).

How the values were obtained:
Tg-TauP301L mice = test: Hippocampal PHF Tau hyperphosphorylation (AT8) in Tg-TauP301L model of tauopathy; assay type: in vivo, mouse; settings: 12 months-old Tg-TauP301L mice treated for 6 months
Description: (§1) For a genetic model of familial AD (FAD), Tg2576 mice (Taconic Biosciences, Rensselaer, N.Y., USA) were used with neuron-specific overexpression of human APPSwe, i.e the Swedish mutation of APP695 isolated from a Swedish family with FAD featuring the double mutation K670N/M671L (Hsiao et al., Science 274, 99-103 (1996)). As a genetic model of tauopathy, the Tg-TauP301L mice (Model 2508, Taconic Biosciences, Rensselaer, N.Y., USA) with neuron-specific expression of the most common FTDP-17 (frontotemporal dementia and parkinsonism linked to chromosome 17) mutation (Lewis et al., Nature Genetics 25, 402-405 (2000)) were used. To enhance neurodegeneration and neuronal loss, the CUMS (chronic unpredictable mild stress) protocol was performed with male 12 months-old Tg2576 mice for 3 months essentially as described (AbdAlla et al., J. Biol. Chem. 284, 6554-6565 (2009); AbdAlla et al., J. Biol. Chem. 284, 6566-6574 (2009)). […]
Similarly, hyperphosphorylated Tau was detected with AT8 antibody on paraffin-embedded brain sections from 12 months-old Tg-TauP301L mice (Model 2508, Taconic Biosciences, Rensselaer, N.Y., USA) without and with treatment with Compound-1 and Compound-4 for 6 months. […]

Tg2576 AD mice = test: Abeta plaque load by immunohistology (BAM-10) in Tg2576 mice; assay type: in vivo, mouse; settings: 18-month-old Tg2576 mice, 8 mg/kg/d in drinking water for 6 months, vs untreated Tg2576 controls
Description: as §1
For Abeta plaque load quantification by immunohistochemistry, paraffin-embedded brain sections (or cryosections) (8 microm, 10-15 sections/brain taken at 30-50 microm intervals) were prepared from brains isolated from 18-month-old Tg2576 mice (Taconic Biosciences, Rensselaer, N.Y., USA) treated for six months without and with Compound-1 and Compound-4 (8 mg/kg body weight/day in drinking water). […]

Compound: O=C(C1=C(O)C(c2ccccc2)N(c2ccc3c(c2)OCO3)C1=O)C1CC1 (stereo not drawn) [Compound-1, 1-(1,3-benzodioxol-5-yl)-4-(cyclopropane-carbonyl)-3-hydroxy-2-phenyl-2H-pyrrol-5-one]
- hippocampal content of hyperphosphorylated PHF-Tau (quantitative, [125I]-AT8 binding) (Tg-TauP301L mice): significantly decreased hippocampal content of hyperphosphorylated PHF-Tau
- PHF Tau hyperphosphorylation in hippocampal CA3 area (immunohistology) (Tg-TauP301L mice; 8 mg/kg/d in drinking water): largely absent
- Abeta plaque load in hippocampus and frontal cortex (Tg2576 AD mice): significantly retarded the accumulation of Abeta plaques
